In patent publication US11179375B2, “Methods and drug products for treating Alzheimer's disease” (Zinfandel Pharmaceuticals, Inc., priority 2011, dated 2021):
Structures can show the parent of a compound that is named as a salt. Where two headings read alike, the source gives them in different places.

How the values were obtained:
[1] = test system: rat brain; assay: Rat BOLD fMRI study of resting state functional connectivity; type: in vivo
Experimental: BOLD fMRI was used to measure drug-related changes in resting state functional connectivity across the whole brain.
Adult male Wistar rats (275±25 g) were housed separately and maintained on a 12-h light, 12-h dark schedule. Food and water was provided ad libitum. Animals were cared for in accordance with the guidelines published in the Guide for the Care and Use of Laboratory Animals (National Institutes of Health Publications No. 85-23, Revised 1985). Animal body weights were measured approximately 24 hours before Day −3, and on Study Days 3 and 6.
Pioglitazone HCl (PIO) was dissolved in 0.5 mol/L citric acid (CA) to yield a stock solution at a concentration of 0.32 mg/10 mL/kg. Other dosages were prepared by appropriate dilution of the stock solution with 0.5 mol/L CA to yield dose volumes of 10 mL/kg. Control rats received the vehicle at 10 mL/kg. Dose concentrations were based on the weight of the test article as supplied (i.e., as the HCl salt), with the dose adjusted to the most recent body weight of the animal. Daily dosing with PIO in solution was by oral gavage at approximately the same time every day. Animals were anesthetized lightly with isoflurane immediately beforehand to facilitate dosing.
All animals used in the imaging studies were acclimated to the MRI holding device by being placed in it for 15-90 minutes daily for at least 7 days, as previously described (Zhang et al. 2010 J Neurosci Methods 189: 186-196; Liang et al. 2011 J Neurosci 31: 3776-3783).
After the acclimation period, animals were assigned to 1 of 7 treatment arms matched for mean body weights (see Table 1). Dosing occurred once daily, at approximately the same time every day. All animals were imaged at Baseline (Study Day −3), approximately 2.5 to 3 h after dosing with vehicle. Dosing began 3 days later (Study Day 1). On this day, all animals were administered either vehicle (CA) or PIO depending on their group assignment. On Study Day 2, one vehicle group and one group treated with PIO at 0.08 mg/kg/day (Acute Arm) were imaged approximately 2.5 to 3 h after dosing. For all groups, dosing continued for seven days total. On Study Day 7, all rats were imaged approximately 2.5 to 3 h after administration of the final dose.
Animal preparation activities related to imaging were initiated to insure that the imaging itself occurred approximately 2.5 to 3 h after dosing. The animals were prepared for positioning in the restraint under isoflurane anesthesia as previously described (Zhang et al. 2010, supra). […] Imaging was conducted on awake animals.
All MR experiments were conducted using a 4.7 T/40 cm horizontal magnet (Oxford, UK) interfaced with a BiospecBruker console (Bruker, Germany) and equipped with a 20 G/cm magnetic field gradient. A dual ^1H radiofrequency (RF) coil configuration (Insight Neurolmaging Systems, Worcester, Mass.) consisting of a volume coil for exciting the water proton spins and a surface coil for receiving MRI signal was used; the volume and surface coils were actively tuned and detuned to prevent mutual coil coupling. This dual-coil configuration allowed for sufficient RF field homogeneity in the rat brain for RF transmission, while preserving the advantage of higher signal-to-noise ratio (SNR) provided by the smaller reception coil.
Anatomical images were acquired first using a multi-slice fast spin-echo sequence (RARE) with the parameters: repetition time (TR)=2125 ms; RARE factor=8; effective echo time (TE)=50 ms; matrix size=256×256; field of view (FOV)=3.2×3.2 cm^2; slice number=18; slice thickness=1 mm; n=8.

[2] = test system: neuronal insulin resistance; details: cited from earlier work
[3] = test system: transgenic mouse models of AD, and mouse and rat models of neurodegeneration or brain injury; details: in vivo; cited from earlier work
[4] = test system: diabetic patients with AD or mild cognitive impairment; details: placebo-controlled clinical trials; cited from earlier work
[5] = test system: cell death due to glucose deprivation; details: cited from earlier work
[6] = Human exposure (AUC) used for dose extrapolation; details: in vivo, humans, dose of 7.5 mg
From the text: (§1) Extrapolation to the corresponding dosage in humans was achieved while adjusting for the relative AUC for each.

[7] = in vivo; details: rat
From the text: as §1

Question: For `CCc1ccc(CCOc2ccc(CC3SC(=O)NC3=O)cc2)nc1` (stereo not shown) [pioglitazone, Pioglitazone], which “change in metabolism in the central region of the deep cortical structures of the brain (fMRI)” value ([1]; even the lowest doses, orally-administered, immediate release) is on record?
Answer: produce a change in metabolism

Question: What about the neuronal insulin resistance [2] of the same molecule?
Answer: improves neuronal insulin resistance

Question: What about the “reported effects in animal models (amyloid plaque burden, brain glucose utilization, inflammation, oxidative stress, memory and learning deficits, neurogenesis)” value [3] of the same molecule?
Answer: Beneficial effects

Question: And the cognition [4]?
Answer: improved

Question: What about the hyperinsulinemia [4] of the same molecule?
Answer: improved

Question: What about the “regional cerebral blood flow” value [4] of the same molecule?
Answer: improved regional cerebral blood flow

Question: And the “concentration that significantly reduces cell death due to glucose deprivation” value [5]?
Answer: ≥ 1 nM

Question: And the “expression of NRF1, TFAM1 and UCP-2” value [5]?
Answer: increases expression

Question: And the brain concentration (0.5 mg dose)?
Answer: approximately 6.7 nM

Question: And the serum concentration (0.5 mg dose)?
Answer: approximately 33.3 nM

Question: What about the brain concentration (1.5 mg dose) of the same molecule?
Answer: approximately 20 nM

Question: What about the serum concentration (1.5 mg dose) of the same molecule?
Answer: approximately 100 nM

Question: What about the brain concentration (4.5 mg dose) of the same molecule?
Answer: approximately 50 nM

Question: What about the serum concentration (4.5 mg dose) of the same molecule?
Answer: approximately 300 nM

Question: What about the brain concentration (9 mg dose) of the same molecule?
Answer: approximately 120 nM

Question: And the serum concentration (9 mg dose)?
Answer: approximately 600 nM

Question: What does the source list for `CCc1ccc(CCOc2ccc(CC3SC(=O)NC3=O)cc2)nc1` (stereo not shown) [PIO, Pioglitazone HCl]?
Answer: time at which functional changes were induced ([1]; 0.08 mg/kg/day, earliest time point assayed after initiation of treatment): ≤ 24 h; fMRI signal relative to lower dosages ([1]; 0.32 mg/kg/day, appearance in FIG. 1, to be confirmed): diminished signal; dose that induced functional changes at earliest time point ([1]; 24 hours after initiation of treatment): ≥ 0.08 mg/kg/day; dose that induces change in metabolism in deep subcortical structure of the rat brain (fMRI) ([1]; group-averaged fMRI signal, treatment day 7, relative to vehicle control): ≥ 0.04 mg/kg/day; blood brain barrier penetration ([1]; low-dose PIO, administered orally, concluded from fMRI changes): penetrates the blood brain barrier; dose that induces changes in multiple brain regions ([1]; oral, relative to vehicle control): ≥ 0.04 mg/kg/day; AUC [6]: 2800 ng·h/mL; AUC ([7]; Wistar, po, 0.04 mg/kg/day): 570 ng·h/mL; AUC ([7]; Wistar, po, 0.08 mg/kg/day): 1140 ng·h/mL; AUC ([7]; Wistar, po, 0.16 mg/kg/day): 2280 ng·h/mL; AUC ([7]; Wistar, po, 0.32 mg/kg/day): 4550 ng·h/mL; AUC ([7]; 0.5 mg/kg/day): 7110 ng·h/mL
